Read-outs that look alike come from different tables or passages of the source.
Assays:
[1] = system: acid phosphatase-expressing Candida boidinii; assay type: cell-based; details: 8 hours
Protocol: Candida boidinii was transformed and acid phosphatase-expressing microorganisms were produced based on a method described in a known document (Regulation and evaluation of five methanol-inducible promoters in the methylotrophic yeast Candida boidinii, H. Yurimoto et al., Biochimica et Biophysica Acta, 1493, 2000, pp. 56-63). The acid phosphatase-expressing microorganisms were inoculated using a platinum loop into BMGY broth, and were shake-cultured at 200 rpm at 30° C. for 15 hours. Then, the thus-obtained broth was resuspended in 125-ml BMGY broth to a final OD of 0.1 OD/ml. Further, the resuspended broth was continued to be shake-cultured at 1100 rpm at 30° C. for about 17 hours until OD was 2 to 5. When OD was 2 to 5, methanol was added to a concentration of 2 v/v %, followed by culturing at 1100 rpm at 30° C. for 2 hours.
Two hours later, the surfactant described in Table 3 was added to the broth in the weight described in Table 3, and the broth was cultured at 1100 rpm at 30° C. for 8 hours. Eight hours later, the broth was sampled for measuring the optical density (optical density at the end of culturing), and was subjected to centrifugation using a centrifuge to separate bacteria and the supernatant from the broth. Then, the supernatant and the bacteria were collected.
Then, 50 mM acetic acid NaBf (pH 4.0) was added to the bacteria, followed by centrifugation, whereby the bacteria were washed. The washed bacteria were resuspended in 50 mM acetic acid NaBf (pH 4.0), whereby a sample for measuring the acid phosphatase activity on the bacterial surface was obtained.
The supernatant obtained in each of Examples 23 to 33 and Comparative Example 3 was mixed with a 2 M sodium acetate buffer (pH 4.0) in an amount of 5 μl that is 1/40 of the amount of the supernatant. The buffer-containing supernatant or the sample for measuring the bacterial surface obtained in each of Examples 23 to 33 was mixed with a substrate solution (50 mM sodium acetate buffer containing 0.64 mg/ml of p-nitrophenylphosphate; pH 4.0) at a capacity ratio of 1:1, and the mixture was reacted at 35° C. for 10 minutes.
After the reaction, a 10% solution of trichloroacetic acid in an amount equal to the amount of the reaction solution was added to the reaction solution to terminate the reaction. To develop a color, a saturated sodium carbonate solution in an amount equal to the total amount of the reaction solution was added to the solution in which the reaction has been terminated. The color-developed solution was centrifuged at 1500×g for 5 minutes to remove the insoluble fraction, and the absorbance at 420 nm was measured using a microplate reader “PowerWave” (Biotek). The reference wavelength was set to 630 nm.
The acid phosphatase activity of each of the supernatant and the sample for measuring the bacterial surface was calculated from the following formula. The thus-obtained acid phosphatase activity of the supernatant was regarded as the “acid phosphatase activity of secreted and produced useful substance” and the acid phosphatase activity of the sample for measuring the bacterial surface was regarded as the “acid phosphatase activity of useful substance remaining on bacterial surface”.
Acid phosphatase activity=((Abs 420 nm)−(Abs 630 nm))/(optical density at the end of culturing)
For each of Examples 23 to 33 and Comparative Example 3, the obtained value of the “acid phosphatase activity of secreted and produced useful substance” and the obtained value of the “acid phosphatase activity of useful substance remaining on bacterial surface” were used to calculate the secretion efficiency from the following mathematical formula.
Secretion efficiency (%)=100×(Acid phosphatase activity of secreted and produced useful substance)/(total acid phosphatase activity) […]

[2] = pKa of the ionizable group of the surfactant in water; details: two values where two ionizable groups
Protocol: (§1) The pKa of the ionizable group in water is a value determined at 25° C.

physchem = details: pKa of the ionizable group in water at 25° C., two values where two ionizable groups
Protocol: as §1

[3] = surfactant 0.03 wt % of broth, Examples 24, 27-33

With `CCCCCCCCCCCC[N+](C)(C)CCCS(=O)(=O)O.[OH-]` [Surfactant (A3-3), dodecyldimethyl(3-sulfopropyl)ammonium hydroxide] the “Secretion efficiency (%)” value [1, 3] was 54%.

With “sodium (2-dodecylamino)ethanesulfonate [Surfactant (A3-1)]” the “Secretion efficiency (%)” value [1, 3] was 57%.

For `CCCCCCCCCCCC[N+](C)(C)CC(=O)[O-]` [Surfactant (A3-5), betaine lauryldimethylaminoacetate], the “Secretion efficiency (%)” value [1, 3] was 61%.

In the case of “sodium polyoxyethylene (average 3 mol adduct) lauryl ether acetate [Surfactant (A1-2)]”, the “Secretion efficiency (%)” value [1, 3] is reported as 48% and the “pKa of the ionizable group in water at 25° C.” value [2] is reported as 3.6.

With `CCCCCCCCCCCC[N+](C)(C)C.[Cl-]` [Surfactant (A2-1), lauryl trimethyl ammonium chloride] the pKa (physchem) was 14 and the “Secretion efficiency (%)” value [1, 3] was 61%.

In the case of “sodium polyoxyethylene (average 2.5 mol adduct) lauryl ether sulfate [Surfactant (A1-1)]”, the “Secretion efficiency (%)” value [1, 3] is reported as 49% and the “pKa of the ionizable group in water at 25° C.” value [2] is reported as 2.0.

With `CCCCCCCCCCCCNCCC(=O)O` the “Secretion efficiency (%)” value ([1]; surfactant 0.003 wt % of broth, Example 23) was 49%, the “Secretion efficiency (%)” value [1, 3] was 63% and the “Secretion efficiency (%)” value ([1]; surfactant 0.3 wt % of broth, Example 25) was 77%. The “Secretion efficiency (%)” value ([1]; surfactant 3 wt % of broth, Example 26) was 79%.

In the case of `CCCCCCCCCCCCCCCCOP(=O)([O-])OCC[N+](C)(C)C` [Surfactant (A3-4), miltefosine, reference compound], the “Secretion efficiency (%)” value [1, 3] is reported as 54%.
